This is an account of results in ChEMBL document CHEMBL1134046, “Phthalazine PDE4 inhibitors. Part 2: the synthesis and biological evaluation of 6-methoxy-1,4-disubstituted derivatives” (Bioorg Med Chem Lett, 2001).

The target in data set [1] is T1, Phosphodiesterase 4 (Homo sapiens, UniProt P27815+Q08499+Q07343+Q08493). Put plainly: Inhibition of rolipram binding to PDE4. Type of data set: protein assay.
Data set [2] concerns the target T1, Phosphodiesterase 4.
Description: Inhibition of human Phosphodiesterase 4
The species named for data set [3] is Rattus norvegicus. Put plainly: Increased acid secretion in the isolated whole rat stomach. Type of data set: functional.
The nature of data set [4]: Oral bioavailability in rat. Type of data set: ADME, organism-based. To be noted: in vivo.
The species named for the next data set is Homo sapiens. The experiment in a line: Inhibition of TNF-alpha synthesis in human monocytes. Format: functional, organism-based.
Data set [5] relates to Cavia porcellus. Put plainly: Percent inhibition of eosinophil infiltration in the guinea pig at 30 uM/kg ip. Type of data set: functional.
The species entered for data set [6] is Rattus norvegicus. The experiment in a line: In vitro and metabolic stability was determined. Format: ADME.
The test system of data set [7] is Canis familiaris. The experiment in a line: Emetic effect in dog after intravenous administration. Format: functional. To be noted: Canis lupus familiaris.
Data set [8] addresses T1, Phosphodiesterase 4. The experiment in a line: Inhibition of rolipram binding to PDE4 at 10e-6 M. Type of data set: protein assay.
The target of data set [9] is T1, Phosphodiesterase 4. The experiment in a line: Inhibition of rolipram binding to PDE4 at 10e-5 M. Type of data set: protein assay.
Data set [10] concerns the target T1, Phosphodiesterase 4. The experiment in a line: Percent inhibition of human Phosphodiesterase 4 at 10e-7 M. Type of data set: protein assay.
Data set [11] has as its target T1, Phosphodiesterase 4. Put plainly: Inhibition of human neutrophil phosphodiesterase 4. Format: protein assay.
The target in data set [12] is T1, Phosphodiesterase 4. The experiment in a line: Percent inhibition of human neutrophil phosphodiesterase 4 at 10e-7 M. Type of data set: protein assay.
In data set [13] the test system is Cavia porcellus. Put plainly: Percent inhibition of eosinophil infiltration in the guinea pig at 30 uM/kg (ip). Type of data set: functional.
For data set [14], the system named is Canis familiaris. The experiment in a line: Emetic effect in dog on intravenous administration. Type of data set: functional. To be noted: Canis lupus familiaris.
Data set [15] is filed under the species Rattus norvegicus. The experiment in a line: In vitro metabolic stability in rat hepatocytes. Type of data set: ADME, Hepatocyte.
The target in data set [16] is T1, Phosphodiesterase 4. The experiment in a line: Inhibition of human neutrophil Phosphodiesterase 4. Type of data set: protein assay.

Where only a bound is given, the exact number is not on record here.

For the molecule `COc1ccc2c(Cc3c(Cl)cncc3Cl)nnc(-c3ccccc3)c2c1`, the inhibition constant Ki on Phosphodiesterase 4 [1] stood at 271 nM. Moreover, the IC50 against Phosphodiesterase 4 [2] was found to be 37 nM; in the data set listed under Rattus norvegicus [3], 4 µM; in the data set listed under Homo sapiens, 46 nM. For the same molecule, the bioavailability in [4] was determined as 27%. The Inhibition in the data set on Cavia porcellus [5] turned out to be 34%. For the same molecule, in the data set listed under Rattus norvegicus [6], the “Met. stab. Cl. int” value is 5.8 ul min-1 (10e6*cells)-1. The same molecule gave an ED50 in the data set on Canis familiaris [7] of over 30 µmol/kg.
Molecule `C#Cc1nnc(Cc2c(Cl)cncc2Cl)c2ccc(OC)cc12` displayed a Ki on Phosphodiesterase 4 [1] of 204 nM. The IC50 is 93 nM against Phosphodiesterase 4 [2] and 87 nM in the data set filed under Homo sapiens.
For `COc1ccc2c(Cc3c(Cl)cncc3Cl)nnc(C#Cc3ccccc3)c2c1`, the half-maximal inhibitory concentration (IC50) was found to be 48 nM against Phosphodiesterase 4 [2] and 273 nM in the data set listed under Homo sapiens. This molecule displayed an Inhibition on Phosphodiesterase 4 [8] of 21%.
In turn, `COc1ccc2c(Cc3c(Cl)cncc3Cl)nncc2c1` yielded an Inhibition on Phosphodiesterase 4 [9] of 42%.
Regarding `COc1ccc2c(Cc3c(Cl)cncc3Cl)nnc(CCCCc3ccccc3)c2c1`, the Inhibition at Phosphodiesterase 4 [10] worked out at 19%.
On the same count and under the same terms, as for `CCc1nnc(Cc2c(Cl)cncc2Cl)c2ccc(OC)cc12`, the figure is 23%.
As to `COc1ccc2c(Cc3c(Cl)cncc3Cl)nnc(Oc3ccccc3)c2c1`, at Phosphodiesterase 4 [1], the Ki stood at 436 nM. For the same molecule, the IC50 amounted to 166 nM in the data set filed under Homo sapiens and 132 nM against Phosphodiesterase 4 [11].
Take `COc1ccc2c(Cc3c(Cl)cncc3Cl)nnc(-n3ccnc3)c2c1`: at Phosphodiesterase 4 [12], the Inhibition is reported as 17%.
For `COc1ccc2c(Cc3c(Cl)cncc3Cl)nnc(N(C)C)c2c1`, the Inhibition at Phosphodiesterase 4 [10] is 39%.
As to `COc1ccc2c(Cc3c(Cl)cncc3Cl)nncc2c1OC1CCCC1`, half-maximal inhibition in the data set filed under Homo sapiens (IC50) required 224 nM.
Take `COc1ccc([C@]2(C#N)CC[C@@H](C(=O)O)CC2)cc1OC1CCCC1` [CILOMILAST]: the IC50 in the data set filed under Rattus norvegicus [3] is 1 µM; in the data set listed under Homo sapiens it was 158 nM. The bioavailability in [4] stood at 35%. The Inhibition with Cavia porcellus [13] is on record as 17%. For the same molecule, the ED50 in the data set with Canis familiaris [14] turned out to be 10 µmol/kg. Moreover, the “Met. stab. Cl. int” value in the data set listed under Rattus norvegicus [15] is given as 9.2 ul min-1 (10e6*cells)-1.
Regarding `COc1ccc2c(Cc3c(Cl)cncc3Cl)nnc(N3CCCC3=O)c2c1`, the Inhibition at Phosphodiesterase 4 [12] is given as 6%.
For `COc1ccc2c(Cc3c(Cl)cncc3Cl)nnc(N3CCCC3)c2c1`, at Phosphodiesterase 4 [1], the Ki was 89 nM. Besides, the IC50 stood at 38 nM against Phosphodiesterase 4 [2] and 9 nM in the data set listed under Homo sapiens.
For `COc1ccc2c(Cc3c(Cl)cncc3Cl)nnc(-c3nccs3)c2c1` the same measures were 34 nM, 14 nM and 8 nM.
With `COc1ccc2c(Cc3c(Cl)cncc3Cl)nnc(N3CCN(C)CC3)c2c1`, the Inhibition at Phosphodiesterase 4 [10] was 16%.
`COc1ccc2c(Cc3c(Cl)c[n+]([O-])cc3Cl)nnc(-c3nccs3)c2c1` had a Ki on Phosphodiesterase 4 [1] of 17 nM. Besides, the half-maximal inhibitory concentration (IC50) on Phosphodiesterase 4 [2] amounted to 4 nM; in the data set filed under Homo sapiens it was 3 nM.
For the molecule `COc1ccc2c(Cc3c(Cl)cncc3Cl)nnc(-n3cncn3)c2c1`, the Ki on Phosphodiesterase 4 [1] worked out at 241 nM. Further, the IC50 is over 30 µM in the data set listed under Rattus norvegicus [3], 72 nM in the data set listed under Homo sapiens and 72 nM against Phosphodiesterase 4 [11]. For the same molecule, the Inhibition in the data set listed under Rattus norvegicus [3] is 33%; in the data set with Cavia porcellus [13] it was 37%. Besides, the bioavailability in [4] amounted to 27%. Also, the ED50 in the data set on Canis familiaris [7] was over 30 µmol/kg. Also, the “Met. stab. Cl. int” value in the data set filed under Rattus norvegicus [15] is 1.5 ul min-1 (10e6*cells)-1.
As to `CCCNc1nnc(Cc2c(Cl)cncc2Cl)c2ccc(OC)cc12`, at Phosphodiesterase 4 [10], the Inhibition is 19%.
`COc1ccc2c(Cc3c(Cl)cncc3Cl)nnc(N3CCOCC3)c2c1`: at Phosphodiesterase 4 [1], the Ki was 452 nM. Further, the values for the IC50 at Phosphodiesterase 4 [16] and in the data set listed under Homo sapiens were 132 nM and 62 nM, respectively.

One may read the Ki as a dissociation constant, usually derived from enzyme kinetics or from competition with a known ligand. By IC50 is commonly meant the concentration that inhibits the measured activity by half. Higher therefore signals a need for much substance. Broadly, the bioavailability is the share of a dose that reaches the circulation, judged against a reference dose that is usually intravenous. Low readings indicate little systemic uptake, high ones much systemic uptake. Broadly, the Inhibition is the percentage by which the read-out fell short of the control. A high value points to a strong effect. The term ED50 denotes the dose that gives a 50% effect, or the effect in half of the subjects. Lower therefore signals greater potency.
